Assay results taken from PubChem BioAssay AID1963967 (Molecular Pharmacology Branch, DTP, NCI, 2024).

Test system: 855422-203-R-J1-PDC spheroids with HUVEC/MSC, viability
Experiment: Anticancer human tumor 855422-203-R-J1-PDC patient-derived bladder carcinoma cell line growth inhibition [PI3K]
Conditions: for viability, T/C: stronger effect = lower value; active = viability on the fitted dose curve at most 10% of control; inactive = the rest
Procedure, shortened: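 Three cell types, namely tumor cells, endothelial cells and mesenchymal stem cells, formed each spheroid. Combinations with four PI3K inhibitors were screened at clinically achievable concentrations decreasing by half-log, and spheroid viability was recorded.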
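Also: agents incubated with spheroids for one week before read-out.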
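For viability, T/C in this document: 100% = DMSO vehicle-treated control wells.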

CC(=O)c1c(C)c2cnc(Nc3ccc(N4CCNCC4)cn3)nc2n(C2CCCC2)c1=O + CC(Nc1ncnc2nc[nH]c12)c1cc2cccc(Cl)c2c(=O)n1-c1ccccc1
> 100 nM: IC50 (curve of first compound, second compound 0.0316 µM) | IC50 (curve of first compound, second compound 0.1 µM) | IC50 (curve of first compound, second compound 0.316 µM) | IC50 (curve of first compound, second compound 1 µM) | IC50 (curve of first compound, second compound 3.16 µM)
65.4 nM: IC50 (curve of first compound, second compound 10 µM)
inactive: viability, T/C (second compound 0.0316 µM, first compound 0.000316 µM) 106% | viability, T/C (second compound 0.0316 µM, first compound 0.001 µM) 95.8% | viability, T/C (second compound 0.0316 µM, first compound 0.00316 µM) 105% | viability, T/C (second compound 0.0316 µM, first compound 0.01 µM) 93.4% | viability, T/C (second compound 0.0316 µM, first compound 0.0316 µM) 100% | viability, T/C (second compound 0.0316 µM, first compound 0.1 µM) 79% | viability, T/C (second compound 0.1 µM, first compound 0.000316 µM) 111% | viability, T/C (second compound 0.1 µM, first compound 0.001 µM) 92.5% | viability, T/C (second compound 0.1 µM, first compound 0.00316 µM) 105% | viability, T/C (second compound 0.1 µM, first compound 0.01 µM) 99.8% | viability, T/C (second compound 0.1 µM, first compound 0.0316 µM) 94.4% | viability, T/C (second compound 0.1 µM, first compound 0.1 µM) 76.2% | viability, T/C (second compound 0.316 µM, first compound 0.000316 µM) 101% | viability, T/C (second compound 0.316 µM, first compound 0.001 µM) 108% | viability, T/C (second compound 0.316 µM, first compound 0.00316 µM) 110% | viability, T/C (second compound 0.316 µM, first compound 0.01 µM) 95.3% | viability, T/C (second compound 0.316 µM, first compound 0.0316 µM) 105% | viability, T/C (second compound 0.316 µM, first compound 0.1 µM) 81.3% | viability, T/C (second compound 1 µM, first compound 0.000316 µM) 91.9% | viability, T/C (second compound 1 µM, first compound 0.001 µM) 102% | viability, T/C (second compound 1 µM, first compound 0.00316 µM) 102% | viability, T/C (second compound 1 µM, first compound 0.01 µM) 101% | viability, T/C (second compound 1 µM, first compound 0.0316 µM) 95.9% | viability, T/C (second compound 1 µM, first compound 0.1 µM) 73.9% | viability, T/C (second compound 3.16 µM, first compound 0.000316 µM) 98.7% | viability, T/C (second compound 3.16 µM, first compound 0.001 µM) 96.4% | viability, T/C (second compound 3.16 µM, first compound 0.00316 µM) 101% | viability, T/C (second compound 3.16 µM, first compound 0.01 µM) 93.2% | viability, T/C (second compound 3.16 µM, first compound 0.0316 µM) 85.4% | viability, T/C (second compound 3.16 µM, first compound 0.1 µM) 54% | viability, T/C (second compound 10 µM, first compound 0.000316 µM) 84.7% | viability, T/C (second compound 10 µM, first compound 0.001 µM) 84.3% | viability, T/C (second compound 10 µM, first compound 0.00316 µM) 80% | viability, T/C (second compound 10 µM, first compound 0.01 µM) 73.9% | viability, T/C (second compound 10 µM, first compound 0.0316 µM) 74.3% | viability, T/C (second compound 10 µM, first compound 0.1 µM) 36.9%

Cn1nccc1Nc1nccc(-c2ccn(C(CO)c3ccc(Cl)c(F)c3)c(=O)c2)n1 (centres undefined)
8.75 µM [middle of 4 runs]: IC50 (curve of compound)
inactive: viability, T/C (compound 0.0316 µM) 112% [middle of 4 runs] | viability, T/C (compound 0.1 µM) 99.8% [middle of 4 runs] | viability, T/C (compound 0.316 µM) 108% [middle of 4 runs] | viability, T/C (compound 1 µM) 90.7% [middle of 4 runs] | viability, T/C (compound 3.16 µM) 93.1% [middle of 4 runs] | viability, T/C (compound 10 µM) 44% [middle of 4 runs]
